Measured values reported in paper PMC11434026, “Development and Validation of an LC-MS/MS Assay for the Quantitation of MO-OH-Nap Tropolone in Mouse Plasma: Application to In Vitro and In Vivo Pharmacokinetic Studies” (Molecules, 2024).
“And” between values parts separate entries of the source, which are not always exact repeats. Identical values can stand only once. Like-named read-outs stand apart in the source and are kept apart here.

How the values were obtained:
[1] = Gastrointestinal fluid stability (SGF, SIF, PBS); type: physicochemical; settings: 37 °C, 1 µg/mL
Description: The gastric stability of MO-OH-Nap was determined at different physiological pH conditions using simulated gastric/intestinal fluid (SGF/SIF) or PBS (pH7.4) prepared with USP specifications. Briefly, simulated gastric fluid (SGF), pH 1.2, was prepared by dissolving […] of sodium chloride (NaCl) and 3.2 g of pepsin in 7 mL hydrochloric acid (HCl) and a sufficient amount of water to make 1000 mL. The simulated intestinal fluid (SIF), pH 6.8, was prepared by dissolving 6.805 g of monobasic potassium phosphate in 250 mL of water. Then 77 mL of 0.2 N sodium hydroxide (NaOH) was mixed with 500 mL water and 10 g of pancreatin, then made up to 1000 mL. The SIF solution is adjusted to pH 6.8 ± 0.1 with either 0.2 N NaOH or 0.2 N HCl. MO-OH-Nap at 1 µg/mL concentration was incubated with SGF, SIF and PBS (100 mM pH 7.4) at 37 °C on a shaking water bath, n = 3. Samples (100 µL) were collected at 0, 15, 30, 60, and 120 min. Immediately after sample collection, 300 µL ACN was added as a quenching solvent to stop chemical degradation. IS solution (10 µL from 1 µg/mL stock) was added to each sample, vortexed the centrifuged at 14,000 rpm (22,000× g) and 4 °C, and then transferred to HPLC vial for LC-MS/MS analysis. Stability was determined through the percentage of the parent drug remaining at different time points relative to the parent drug at 0 min (100% parent).

CD-1 mice = tested on: CD-1 mice; parameters: method as in PMID 30612055; settings: up to 9.4 mg/kg intravenously three times weekly; cited from earlier work
[2] = Plasma pharmacokinetics after single IP dose in CD-1 mice; type: in vivo, mouse; settings: for Cmax / Vd/F / AUC: 5 mg/kg
Description: Female CD-1 mice,6–8-week-old, with weights ranging from 20 to 25 g were housed in the UNMC animal facility, at a temperature of 23–24 °C, relative humidity of 40–70%, and 12/12-h light/dark cycles. Mice were left to acclimatize to laboratory conditions for 7 days prior to experimental day. MO-OH-Nap was dissolved in a 5% DMSO, 45% w/v hydroxypropyl-β-cyclodextrin solution in PBS (final concentration 0.625 mg/mL MO-OH-Nap). MO-OH-Nap (5 mg/kg) was administered IP. After dosing, approximately 100 µL of blood was collected in Lithium-Heparin-Microvette 300 µL Capillary Blood Collection Tube (SARSTEDT AG& Co., Nümbrecht, Germany) from the maxillary vein at 5, 15, 30 min and 1, 2, 4, 6, 8, 24, and 48 h. Two blood time points were collected from every mouse and the third time point was the terminal time point, for a total of three time points from each mouse (5 mice/group/per time point). Blood was centrifuged at 4000× g at 4 °C for 10 min to extract plasma. The collected plasma samples were stored at −80 °C until analysis. The pharmacokinetics of MO-OH-Nap were determined using non-compartmental (NCA) pharmacokinetics analysis, utilizing Phoenix® WinNonlin software version 8.2 (Certara Corporation, Mountain View, CA, USA). The Cmax and Tmax were determined from visual inspection of the concentration time data. The AUC0_∞ was estimated using the linear trapezoidal method from 0 time point to last time point (0-tlast) and extrapolation from last time point to infinity based on the observed concentration at the last time point divided by the terminal elimination rate constant (k). The t1/2, CL/F and Vd/F were calculated using Equation (10), Equation (11) and Equation (12), respectively. (10) t1/2=0.693/k (11) CL=Dose/AUC0_∞ (12) Vd=Dose /k×AUC0_∞

[3] = Stability in mouse plasma at storage and use conditions; type: physicochemical
Description: The chemical stability of MO-OH-Nap and IS in plasma samples were assessed at LQC, MQC, and HQC concentrations, n = 3, under the following storage conditions: bench-top storage (up to 6 h at room temperature, 21 ± 0.5 °C), three freeze–thaw cycles (−80 ± 0.5 °C to room temperature for 30 min, back to −80 ± 0.5 °C then stored for 24 h, the cycle was repeated twice more), long-term storage (12 months at −80 ± 0.5 °C), and 24 h auto-sampler stability of extracted samples (at 4 ± 0.5 °C).

[4] = Thermodynamic aqueous solubility in PBS; type: physicochemical
Description: After completion of incubation, the microcentrifuge tube was centrifuged at 10,000× g for 10 min. The supernatant (100 μL) was mixed with an equal volume of ACN and centrifuged again at 10,000× g for 10 min. The supernatant was further diluted 80× times with mobile phase and transferred to autosampler vials and analyzed by LC-MS/MS.

[5] = female, mouse, CD-1 mice, single IP 5 mg/kg, plasma
[6] = autosampler 4 °C, up to 24 h, extracted samples, HQC 375 ng/mL
[7] = autosampler 4 °C, up to 24 h, extracted samples, LQC 3 ng/mL
[8] = autosampler 4 °C, up to 24 h, extracted samples, MQC 200 ng/mL
[9] = bench-top 21 °C, up to 6 h, HQC 375 ng/mL
[10] = bench-top 21 °C, up to 6 h, LQC 3 ng/mL
[11] = bench-top 21 °C, up to 6 h, MQC 200 ng/mL
[12] = freeze-thaw −80 °C, 3 cycles, HQC 375 ng/mL
[13] = freeze-thaw −80 °C, 3 cycles, LQC 3 ng/mL
[14] = freeze-thaw −80 °C, 3 cycles, MQC 200 ng/mL
[15] = long-term −80 °C, 12 months, HQC 375 ng/mL
[16] = long-term −80 °C, 12 months, LQC 3 ng/mL
[17] = long-term −80 °C, 12 months, MQC 200 ng/mL

## O=c1c(O)ccccc1-c1ccc2ccccc2c1 [MO-OH-Nap, MO-OH-Nap tropolone]
[1]; PBS pH 7.4, 120 min
  drug remaining: > 80%
[1]; SGF pH 1.2, 120 min
  drug remaining: > 80%
[1]; SIF pH 6.8, 120 min
  drug remaining: > 80%
CD-1 mice
  tolerability (blood counts, renal and hepatic functions, body weight): well-tolerated
[2]; 48 h after single IP 5 mg/kg
  detectability in plasma: detectable
[2]; CD-1 mice, single IP 5 mg/kg, plasma
  Cmax: 3040.9 ng/mL
[2]; CD-1 mice, single IP 5 mg/kg
  Vd/F: 43,727.1 mL/kg
[2]; female, CD-1, mouse, plasma, ip, CD-1 mice, single IP 5 mg/kg, plasma, read-out: AUC0_last
  AUC: 2750 ng·h/mL
[2]; female, CD-1, mouse, plasma, ip, CD-1 mice, single IP 5 mg/kg, plasma, read-out: AUC0_∞
  AUC: 2860 ng·h/mL
[2]; female, CD-1, mouse, plasma, ip, CD-1 mice, single IP 5 mg/kg, plasma, read-out: Cmax
  Cmax: 3040 ng/mL
[2]; female, CD-1, mouse, plasma, ip, CD-1 mice, single IP 5 mg/kg, read-out: Vd/F
  Vd/F: 43.3 L/kg
[2]; female, mouse, plasma, CD-1 mice, single IP 5 mg/kg
  CL/F: 29.8 mL/min/kg
[2]; [5]
  Tmax: 0.3 h
  half-life: 17.7 h
[3]; [6]
  % Accuracy: 90.7 ± 5.3%
  Measured Mean Conc.: 340.2 ± 20.1 ng/mL
[3]; [7]
  % Accuracy: 101.9 ± 5.8%
  Measured Mean Conc.: 3.1 ± 0.2 ng/mL
[3]; [8]
  % Accuracy: 90.1 ± 0.6%
  Measured Mean Conc.: 180.2 ± 1.10 ng/mL
[3]; [9]
  % Accuracy: 101.5 ± 5.6%
  Measured Mean Conc.: 380.5 ± 20.9 ng/mL
[3]; [10]
  % Accuracy: 107.8 ± 14.8%
  Measured Mean Conc.: 3.2 ± 0.5 ng/mL
[3]; [11]
  % Accuracy: 95.8 ± 9.1%
  Measured Mean Conc.: 191.6 ± 18.1 ng/mL
[3]; [12]
  % Accuracy: 88.6 ± 4.7%
  Measured Mean Conc.: 332.2 ± 17.6 ng/mL
[3]; [13]
  % Accuracy: 100.5 ± 13.3%
  Measured Mean Conc.: 3.0 ± 0.4 ng/mL
[3]; [14]
  % Accuracy: 84.0 ± 0.9%
  Measured Mean Conc.: 167.9 ± 1.8 ng/mL
[3]; [15]
  % Accuracy: 92.7 ± 0.4%
  Measured Mean Conc.: 347.4 ± 1.5 ng/mL
[3]; [16]
  % Accuracy: 95.6 ± 2.4%
  Measured Mean Conc.: 2.9 ± 0.1 ng/mL
[3]; [17]
  % Accuracy: 99.8 ± 0.6%
  Measured Mean Conc.: 199.5 ± 1.3 ng/mL
[4]; PBS pH 7.4
  solubility class per USP: partially soluble and very slightly soluble
[4]; phosphate buffered saline (PBS), PBS pH 7.4, 24 h
  solubility at 24 h: 20.2 µg/mL and 80.1 µM
